These results are taken from patent publication US9399037B2, “Triazinone compounds for treating diseases resulting from infestation with parasitic protozoans” (Bayer Intellectual Property GmbH, priority 1999, dated 2016).

Assay [1] concerns Neospora caninum. In words: Testing substances on infected Neospora caninum cell cultures (VERO cell monolayer, microscopical assessment). Type of assay: cell-based. Particulars: 4 days after beginning of treatment, 5 days post-infection. Also on record: key: 0 = no effect; 1 = some effect; 2 = full action; T = cytotoxic. How it is done:
Neospora caninum is an obligatory intracellular parasite. VERO cells (African green monkey kidney cells, ATCC No.: CCL 81 Vero) were used as an aid to cause the parasite to reproduce under conditions capable of standardization and definition. Vero cells were grown in the following medium: 87% […] (ICN, 12-602-54) 10% FCS (fetal calf serum, ICN, 29-101-49) 1% 200 mM L-glutamine (ICN, 15-801-13) 1% sodium bicarbonate (ICN, 16-883-49) 1% penicillin/streptomycin (ICN, 16-700-49). Noninfected cultures were maintained and passaged in 25 cm^2 (Falcon, B 769031) and 75 cm^2 (Falcon, B 769051) tissue culture flasks. Vero cells were grown at 37° C. in a 5% CO2 atmosphere in a CO2 incubator (Heraeus) until a cell monolayer was obtained.
The following Neospora caninum isolates were used for the infection of cell cultures: NC-1 (canine isolate DUBEY (1988) and NC Swe B-1/9th passage (bovine isolate; National Veterinary Institute Uppsala, Sweden). The infection materials used were infected cell cultures from the nitrogen storage (see above) or purified tachyzoites of infected cultures (see below).
Neospora caninum was isolated from infected VERO or ED monolayers under sterile conditions. First, infected cell cultures were detached from the flask bottom using a spatula (Tec No Mara, 3010) and, using a 23-gauge cannula (Luer 23 Gx1, 0.6×25 mm) drawn into a 10 ml disposable syringe. During this procedure, host cells and tissue cysts contained therein were destroyed mechanically. The cell suspension was subsequently centrifuged for 7 minutes at 1 500 rpm (Varifuge 3.0, Heraeus), the supernatant was discarded, and the sample pellet was resuspended in precisely 2.5 ml of physiological phosphate buffer (PBS: 1 mM PO4, 12 mM NaCl, 0.87 mM KCL, pH 7.4). The next isolation step was performed using a Sephadex column (PD-10™/Sephadex G-25 M, Pharmacia Biotech, 17-0851). The column was first equilibrated with 25 ml of PBS, the sample volume was applied in 2.5 ml of PBS, and elution was then effected with 5 ml of PBS. […]

Assay [2] deals with Neospora caninum. The assay can be described thus: Immunofluorescence test (IFAT) on brain sections of infected mice. Type of assay: in vivo. Also noted: key: Score (−)=no tachyzoites; Score (+)=less than 10 tachyzoites; Score (++)=between 10 and 200 tachyzoites; Score (+++)=more than 200 parasites. The following applies: brain sections of individual mice; 25 mg/kg/day p.o. on 6 successive days; day 14 p.i. How it is done:
(§1) Female Wt C57BL/6-mice, age at the time of treatment: 7½ weeks.
(§2) Neospora caninum tachyzoites were passaged through VERO cells, and isolated by column chromatography, and aliquots with concentrations of 2×10^6 parasites/100 μl were prepared in sterile PBS.
(§3) Pure toltrazuril active compound was made up as a stock solution with 50 mg/10 ml H2O+100 μl Cremophor. 0.5 mg of pure active compound were present Der application in 0.1 ml of this solution. In a mouse of 20 g, this corresponds to a use concentration of 25 mg/kg. The substances were administered perorally by gavage on 6 successive days, which corresponds to a total uptake of […].
(§4) Toltrazuril 2.5% formulated solution (100 ml solution contain: 2.50 g toltrazuril, 30.00 g triethanolamine, 80.70 g polyethylene glycol; the components are simply mixed): 6.25 ml of the 2.5% solution were diluted in 250 ml of water and administered to the mice on 6 successive days via the drinking water.
(§5) Four hours after the start of the prophylactic treatment, each mouse was infected with 2×10^6 parasite stages/100 μl sterile PBS.
14 days post-infection, the test mice were sacrificed using CO2. They were numbered randomly to maintain a random sequence during evaluation (blind evaluation). […]
The entire sections were studied for the assessment. Any stages of the parasite present were counted, and the following scores were used: […]

The subject of assay [3] is Neospora caninum. The assay can be described thus: Neospora caninum-specific PCR on brain DNA of infected mice. The assay is classed as in vivo. The following applies: prophylactic treatment, pure active compound 25 mg/kg/day p.o. How it is done: as §1, §2, §3, §4, §5
14 days post-infection, the test mice were sacrificed using CO2. They were numbered randomly to maintain a random sequence during evaluation (blind evaluation). To obtain serum, blood was taken from the myocardium. The brain was dissected carefully, and one half was stored at −80° C. for the PCR analysis. […]

Assay [4] deals with Neospora caninum. In words: Anti-N. caninum total IgG in the serum by ELISA, prophylactically treated infected mice. The assay is classed as in vivo. The method, then:
as §1, §2, §3, §4, §5
14 days post-infection, the test mice were sacrificed using CO2. They were numbered randomly to maintain a random sequence during evaluation (blind evaluation). To obtain serum, blood was taken from the myocardium. The brain was dissected carefully, and one half was stored at −80° C. for the PCR analysis. The remainder was fixed in 4% paraformaldehyde/PBS for immunohistological studies (IFAT).
Anti-N. caninum total immunoglobulin G (IgG) was determined by ELISA following the method of Eperon et al., 1999, Parasite Immunology 21:225-236. Treated groups were compared with an uninfected and an infected control group. The positive control mouse was inoculated with a crude extract of N. caninum tachyzoites and subsequently infected with 10^6 N. caninum stages. The parasite-specific IgG values were particularly high in this mouse.

In assay [5] the test system is Neospora caninum. The following applies: dogs; treatment with sulfadiazine and clindamycin together; cited from earlier work.
Assay [6] has as its system Neospora caninum. The following applies: experimentally infected mice, administered via the drinking water, cited from earlier work.

Values joined by “and” are separate entries in the source; they are usually repeats but may differ in a detail not shown here. Equal values may be shown once. Read-outs that look alike come from different tables or passages of the source.

For `Cc1cc(-n2c(=O)[nH]c(=O)n(C)c2=O)ccc1Oc1ccc(SC(F)(F)F)cc1` [Toltrazuril, toltrazuril], the entries for the “Efficacy against Neospora caninum in VERO cells (assessment of monolayer)” value in the assay on Neospora caninum [1] (10 ppm), in the assay with Neospora caninum [1] (25 ppm) and in the assay with Neospora caninum [1] (50 ppm) were 1, 2 and 2, respectively. For the same compound, the IFAT result with Neospora caninum [2] is on record as “−”. Besides, the “mice PCR-negative in the group” value in the assay with Neospora caninum [3] is 4/7. Also, in the assay on Neospora caninum [4] (group mean, 7 mice, 25 mg/kg/day p.o. on 6 successive days, day 14 p.i.), the “OD mean (anti Neospora IgG in the serum)” value is listed as 0.1689. Also, the “OD (anti Neospora IgG in the serum)” value in the assay on Neospora caninum [4] (individual C57BL/6 mice, 25 mg/kg/day p.o. on 6 successive days from 4 h before infection, day 14 p.i., 25 mg/kg/day) is 0.338 and 0.271 and 0.056 and 0.066 and 0.18 and 0.103 and 0.168. Further, the “concentration of Neospora caninum-specific IgG antibodies compared with infected and untreated control groups” value in the assay with Neospora caninum [4] (mice, pure active compound 25 mg/kg/day p.o.) is “reduced concentration”.
On to `Nc1ccc(S(=O)(=O)Nc2ncccn2)cc1` [sulfadiazine], for which the success of treatment entry with Neospora caninum [5] was “only has a chance of success when it starts very early”. The effectiveness of treatment entry with Neospora caninum [6] (later start of the treatment) is given as “without success”; in the assay on Neospora caninum [6] (start prior to infection, clinical symptoms prevented without parasitological recovery), “only effective when the treatment was started prophylactically”.
